Measured values: patent US20170190671A1, “BIS(ARYL)CATECHOL DERIVATIVES AS HERBICIDES” (E I DU PONT DE NEMOURS AND COMPANY, priority 2014, published 2017)

How the values were obtained:
Experiment in all cases: Test E preemergence
Type in all cases: in vivo
Conditions in all cases: scale 0 to 100
[1] = tested on: palmer pigweed (Amaranthus palmeri)
From the text: (§1) Seeds of plant species selected from corn (Zea mays), soybean (Glycine max), velvetleaf (Abutilon theophrasti), cocklebur (common cocklebur, Xanthium strumarium), lambsquarters (Chenopodium album), wild poinsettia (Euphorbia heterophylla), palmer pigweed (Amaranthus palmeri), waterhemp (common waterhemp, Amaranthus rudis), surinam grass (Brachiaria decumbens), large (Lg) crabgrass (Digitaria sanguinalis), Brazilian crabgrass (Digitaria horizontalis), fall panicum (Panicum dichotomiflorum), giant foxtail (Setaria faberii), green foxtail (Setaria viridis), goosegrass (Eleusine indica), johnsongrass (Sorghum halepense), ragweed (common ragweed, Ambrosia elatior), barnyardgrass (Echinochloa crus-galli), sandbur (southern sandbur, Cenchrus echinatus), arrowleaf sida (Sida rhombifolia), Italian ryegrass (Lolium multiflorum), dayflower (Virginia (VA) dayflower, Commelina virginica), field bindweed (Convolvulus arvensis), morningglory (Ipomoea coccinea), nightshade (eastern black nightshade, Solanum ptycanthum), kochia (Kochia scoparia), yellow nutsedge (Cyperus esculentus), horseweed (Conyza canadensis), and hairy beggarticks (Bidens pilosa), were planted into a silt loam soil and treated preemergence with test chemicals formulated in a non-phytotoxic solvent mixture which included a surfactant.
(§2) At the same time, plants from these crop and weed species and also waterhemp_RES1, (ALS & Triazine resistant common waterhemp, Amaranthus rudis), and waterhemp_RES2, (ALS & HPPD resistant common waterhemp, Amaranthus rudis) were planted in pots containing Redi-Earth® planting medium (Scotts Company, 14111 Scottslawn Road, Marysville, Ohio 43041) comprising spaghnum peat moss, vermiculite, wetting agent and starter nutrients were treated with postemergence applications of test chemicals formulated in the same manner. Plants ranged in height from 2 to 18 cm for postemergence treatments (1- to 4-leaf stage). Treated plants and controls were maintained in a greenhouse for 14 to 21 days, after which time all species were compared to controls and visually evaluated. Plant response ratings, summarized in Table E, are based on a scale of 0 to 100 where 0 is no effect and 100 is complete control. A dash (-) response means no test result.

[2] = tested on: ragweed (common ragweed, Ambrosia elatior)
From the text: as §1, §2

[3] = tested on: Surinam grass (Brachiaria decumbens)
From the text: as §1, §2

[4] = tested on: green foxtail (Setaria viridis)
From the text: as §1, §2

[5] = tested on: morningglory (Ipomoea coccinea)
From the text: as §1, §2

[6] = tested on: dayflower (Virginia (VA) dayflower, Commelina virginica)
From the text: as §1, §2

[7] = tested on: goosegrass (Eleusine indica)
From the text: as §1, §2

[8] = tested on: barnyardgrass (Echinochloa crus-galli)
From the text: as §1, §2

[9] = tested on: large (Lg) crabgrass (Digitaria sanguinalis)
From the text: as §1, §2

[10] = tested on: lambsquarters (Chenopodium album)
From the text: as §1, §2

[11] = tested on: fall panicum (Panicum dichotomiflorum)
From the text: as §1, §2

[12] = tested on: Italian ryegrass (Lolium multiflorum)
From the text: as §1, §2

[13] = tested on: Brazilian crabgrass (Digitaria horizontalis)
From the text: as §1, §2

[14] = tested on: sandbur (southern sandbur, Cenchrus echinatus)
From the text: as §1, §2

[15] = tested on: waterhemp (common waterhemp, Amaranthus rudis)
From the text: as §1, §2

[16] = tested on: hairy beggarticks (Bidens pilosa)
From the text: as §1, §2

[17] = tested on: yellow nutsedge (Cyperus esculentus)
From the text: as §1, §2

[18] = tested on: nightshade (eastern black nightshade, Solanum ptycanthum)
From the text: as §1, §2

[19] = tested on: field bindweed (Convolvulus arvensis)
From the text: as §1, §2

[20] = tested on: arrowleaf sida (Sida rhombifolia)
From the text: as §1, §2

kochia (Kochia scoparia) = tested on: kochia (Kochia scoparia)
From the text: as §1, §2

## Fc1ccc(F)c(Oc2ncc(Cl)cn2)c1Oc1ncc(Cl)cn1 [Compound 34, 2,2′-[(3,6-difluoro-1,2-phenylene)bis(oxy)]bis[5-chloropyrimidine]]
[1]; 16 g ai/ha
  Plant response rating, Pigweed, Palmer: 0
[1]; 31 g ai/ha
  Plant response rating, Pigweed, Palmer: 50
[1]; 62 g ai/ha
  Plant response rating, Pigweed, Palmer: 70
[1]; 125 g ai/ha
  Plant response rating, Pigweed, Palmer: 100
[2]; 16 g ai/ha
  Plant response rating, Ragweed: 0
[2]; 31 g ai/ha
  Plant response rating, Ragweed: 0
[2]; 62 g ai/ha
  Plant response rating, Ragweed: 25
[2]; 125 g ai/ha
  Plant response rating, Ragweed: 35
[3]; 16 g ai/ha
  Plant response rating, Surinam Grass: 0
[3]; 31 g ai/ha
  Plant response rating, Surinam Grass: 0
[3]; 125 g ai/ha
  Plant response rating, Surinam Grass: 10
[4]; 16 g ai/ha
  Plant response rating, Foxtail, Green: 0
[4]; 31 g ai/ha
  Plant response rating, Foxtail, Green: 10
[4]; 62 g ai/ha
  Plant response rating, Foxtail, Green: 65
[4]; 125 g ai/ha
  Plant response rating, Foxtail, Green: 70
[5]; 31 g ai/ha
  Plant response rating, Morningglory: 20
[5]; 62 g ai/ha
  Plant response rating, Morningglory: 50
[5]; 125 g ai/ha
  Plant response rating, Morningglory: 65
[6]; 16 g ai/ha
  Plant response rating, Dayflower, VA: 0
[6]; 31 g ai/ha
  Plant response rating, Dayflower, VA: 30
[6]; 62 g ai/ha
  Plant response rating, Dayflower, VA: 20
[6]; 125 g ai/ha
  Plant response rating, Dayflower, VA: 90
[7]; 16 g ai/ha
  Plant response rating, Goosegrass: 0
[7]; 31 g ai/ha
  Plant response rating, Goosegrass: 0
[7]; 62 g ai/ha
  Plant response rating, Goosegrass: 5
[7]; 125 g ai/ha
  Plant response rating, Goosegrass: 80
[8]; 16 g ai/ha
  Plant response rating, Barnyardgrass: 0
[8]; 31 g ai/ha
  Plant response rating, Barnyardgrass: 0
[8]; 62 g ai/ha
  Plant response rating, Barnyardgrass: 20
[8]; 125 g ai/ha
  Plant response rating, Barnyardgrass: 60
[9]; 16 g ai/ha
  Plant response rating, Crabgrass, Large: 0
[9]; 31 g ai/ha
  Plant response rating, Crabgrass, Large: 25
[9]; 62 g ai/ha
  Plant response rating, Crabgrass, Large: 98
[9]; 125 g ai/ha
  Plant response rating, Crabgrass, Large: 98
[10]; 16 g ai/ha
  Plant response rating, Lambsquarters: 0
[10]; 31 g ai/ha
  Plant response rating, Lambsquarters: 70
[10]; 62 g ai/ha
  Plant response rating, Lambsquarters: 90
[10]; 125 g ai/ha
  Plant response rating, Lambsquarters: 100
[11]; 16 g ai/ha
  Plant response rating, Panicum, Fall: 50
[11]; 31 g ai/ha
  Plant response rating, Panicum, Fall: 80
[11]; 62 g ai/ha
  Plant response rating, Panicum, Fall: 98
[11]; 125 g ai/ha
  Plant response rating, Panicum, Fall: 100
[12]; 16 g ai/ha
  Plant response rating, Ryegrass, Italian: 0
[12]; 31 g ai/ha
  Plant response rating, Ryegrass, Italian: 0
[12]; 62 g ai/ha
  Plant response rating, Ryegrass, Italian: 35
[12]; 125 g ai/ha
  Plant response rating, Ryegrass, Italian: 70
[13]; 16 g ai/ha
  Plant response rating, Crabgrass, Brazil: 0
[13]; 31 g ai/ha
  Plant response rating, Crabgrass, Brazil: 35
[13]; 62 g ai/ha
  Plant response rating, Crabgrass, Brazil: 95
[13]; 125 g ai/ha
  Plant response rating, Crabgrass, Brazil: 98
[14]; 16 g ai/ha
  Plant response rating, Sandbur: 0
[14]; 31 g ai/ha
  Plant response rating, Sandbur: 0
[14]; 62 g ai/ha
  Plant response rating, Sandbur: 10
[14]; 125 g ai/ha
  Plant response rating, Sandbur: 70
[15]; 16 g ai/ha
  Plant response rating, Waterhemp: 100
[15]; 31 g ai/ha
  Plant response rating, Waterhemp: 100
[15]; 62 g ai/ha
  Plant response rating, Waterhemp: 100
[15]; 125 g ai/ha
  Plant response rating, Waterhemp: 100
[16]; 16 g ai/ha
  Plant response rating, Beggarticks: 50
[16]; 31 g ai/ha
  Plant response rating, Beggarticks: 60
[16]; 62 g ai/ha
  Plant response rating, Beggarticks: 70
[16]; 125 g ai/ha
  Plant response rating, Beggarticks: 75
[17]; 16 g ai/ha
  Plant response rating, Nutsedge, Yellow: 0
[17]; 31 g ai/ha
  Plant response rating, Nutsedge, Yellow: 0
[17]; 62 g ai/ha
  Plant response rating, Nutsedge, Yellow: 0
[17]; 125 g ai/ha
  Plant response rating, Nutsedge, Yellow: 0
[18]; 16 g ai/ha
  Plant response rating, Nightshade: 50
[18]; 31 g ai/ha
  Plant response rating, Nightshade: 50
[18]; 62 g ai/ha
  Plant response rating, Nightshade: 80
[18]; 125 g ai/ha
  Plant response rating, Nightshade: 95
[19]; 16 g ai/ha
  Plant response rating, Field Bindweed: 0
[19]; 31 g ai/ha
  Plant response rating, Field Bindweed: 0
[19]; 62 g ai/ha
  Plant response rating, Field Bindweed: 0
[19]; 125 g ai/ha
  Plant response rating, Field Bindweed: 0
[20]; 16 g ai/ha
  Plant response rating, Arrowleaf Sida: 60
[20]; 31 g ai/ha
  Plant response rating, Arrowleaf Sida: 80
[20]; 62 g ai/ha
  Plant response rating, Arrowleaf Sida: 98
[20]; 125 g ai/ha
  Plant response rating, Arrowleaf Sida: 100
Kochia (Kochia scoparia); 16 g ai/ha
  Plant response rating, Kochia: 0
Kochia (Kochia scoparia); 31 g ai/ha
  Plant response rating, Kochia: 95
Kochia (Kochia scoparia); 62 g ai/ha
  Plant response rating, Kochia: 100
Kochia (Kochia scoparia); 125 g ai/ha
  Plant response rating, Kochia: 100
